From US20140271767A1, “BIOCOMPATIBLE HYDROGEL POLYMER MATRIX FOR DELIVERY OF CELLS” (Medicus Biosciences LLC, priority 2013, published 2014)

Assay: Drug elution from polymer (UV-Vis)
Format: physicochemical
Conditions: within the first three days; Nolvasan polymer, 2% chlorhexidine dose (50 mg), 2 mL PBS per 1 g polymer, 37° C.
Description: A Thermo Scientific GENESYS 10S UV-Vis spectrophotometer was used to quantify the release of various drugs from several polymers. First, the reference drug or drug solution was dissolved in an appropriate solvent. Typically, phosphate buffered saline (PBS), ethanol or dimethylsulfoxide (DMSO) were used as the solvent. Next, the optimal absorption peak for identifying and quantifying the drug was determined by performing a scan of the drug solution between 200 and 1000 nm. With the absorption peak selected, a reference curve was established by measuring the peak absorbance for various concentrations of the drug. […]
Elution samples were collected daily by decanting the PBS solution from the polymer. The volume of sample collected was recorded. […] The elution sample was analyzed by first diluting the sample in the appropriate solvent using analytical pipettes such that the measured absorbance was in the range determined by the reference curve. The dilution factor was recorded. The drug concentration was calculated from the measured absorbance via the reference curve and the dilution factor. The drug amount was calculated by multiplying the drug concentration with the sample volume. The percent elution for that day was calculated by dividing the drug amount by the total amount of drug administered. […]

[H]/N=C(\N/C(=N/[H])NCCCCCCNC(=N)NC(=N)Nc1ccc(Cl)cc1)Nc1ccc(Cl)cc1 [chlorhexidine]
chlorhexidine released from polymer: Almost half
